The numbers were not newly measured in patent publication US20240124437A1, “INJECTABLE LURASIDONE SUSPENSION AND PREPARATION METHOD THEREFOR” (Sichuan Kelun Pharmaceutical Research Institute Co., Ltd., priority 2021, published 2024), which cites them from elsewhere.

The conditions of this data set: oral tablets.

As for `O=C1[C@@H]2[C@H]3CC[C@H](C3)[C@@H]2C(=O)N1C[C@@H]1CCCC[C@H]1CN1CCN(c2nsc3ccccc23)CC1` [lurasidone], the oral bioavailability was 9%-19%.
